Tests used:
[1] = test system: human iPSC-derived neurons; assay: Population firing rate of iPSC-derived neurons on high-density microelectrode array (HD-MEA); format: cell-based; details: added at 8 weeks after initiation of culture with increasing concentration; 1,024 electrodes per well; 10-minute recording per concentration
Method: Electrophysiological responses of the human iPSC-derived neurons were analyzed by using a high-density microelectrode array system (HD-MEA, MaxWell Biosystems AG).
Human iPSC-derived neurons (product name “Quick-Neuron (trademark) Excitatory-Human iPSC-derived Neurons”, ELIXIRGEN SCIENTIFIC, INC.) were cultured in the same manner as in Experimental Example 1, except that the human iPSC-derived neurons were seeded on electrodes of the high-density microelectrode array (HD-MEA) at a cell density of 100,000 cells/well, and the local electric field potential was measured over time.
4-Aminopyridine (4-AP) serving as a potassium channel inhibitor and D-2-Amino-5-phosphonopentanoic acid (D-AP5) serving ax an NMDA receptor inhibitor were added in the culture medium of iPSC-derived neurons at 8 weeks after the initiation of culture while increasing each concentration, and population firing rate histograms were recorded with 1,024 electrodes per well. One-minute stabilization and 10-minute recording were performed for each concentration. Finally, the iPSC-derived neurons were washed with three medium replacements and left for one day, and it was confirmed that the effect of each drug had disappeared.

[2] = test system: Human iPSC-derived mature stage 5 neurons; assay: Localization change of drebrin by immunostaining after glutamic acid treatment; format: cell-based; details: 100 μM for 10 min; immunostaining of MAP2, drebrin, nuclei
Method: Human iPSC-derived mature stage 5 neurons were treated with 100 μM glutamic acid for 10 minutes and then immunostained to examine the localization change of drebrin. For comparison, a sample immunostained without glutamic acid treatment was also prepared.

SMILES	response of population firing rate to the drug [1]	localization change of drebrin [2]
Nc1ccncc1 [4-AP, 4-Aminopyridine]	dose-dependent responses	–
N[C@H](CCCP(=O)(O)O)C(=O)O [D-AP5, D-2-Amino-5-phosphonopentanoic acid]	dose-dependent responses	–
N[C@@H](CCC(=O)O)C(=O)O [glutamate, glutamic acid]	–	drebrin was effluxed from clusters in spines

Source: patent publication US20230399611A1, “PRODUCTION METHOD FOR STAGE 5 NEURONS” (Ricoh Company, Ltd., priority 2022, published 2023)
